Patent publication USRE35224E (The Board of Trustees of the Leland Stanford Junior …, priority 1993, dated 1996)
Entries after “also recorded” stand apart in the source; their conditions may differ. Where a name gives a salt, the structure may show the parent alone.

Tests used:
natural suppressor cells [1] = target: T1, natural suppressor cells (Mus musculus, UniProt P97292); test: Effects of histamine derivatives on cAMP accumulation in natural suppressor (NS) cells; type: cell-based, mouse (BALB/c); conditions: for Relative potency: histamine = 1.0; for Activity / potency on NS cells (in words): cAMP accumulation, H2 activity; for Maximal efficacy on cAMP concentrations (in words): compared with histamine
T1 construct: cAMP accumulation
Source text: NS cells were obtained and cultured as follows: four-to six-month old BALB/c mice were anesthetized with pentobarbital and all major lymphoid organs, including all major lymph nodes, the spleen, and the thymus, were irradiated as described by Slavin et al., Science (1976) 193:1252. The skull, lungs, and hind legs were shielded with lead. The mice were given 200 rad per day, 5 times per week, to a total dose of 3400 rad. Irradiation was delivered from a single 250 kV (15A) source (Philips Medical Systems, Inc., Shelton, CT). The mice were killed between 5 and 15 days after completion of the TLI. Spleens were removed aseptically and single cell suspensions were prepared by gently pressing the spleen fragments through a nylon fiber mesh (Tetko, Inc., Elmsford, NY). These spleen cells were fed daily with tissue culture medium containing RPMI 1640, 10% FCS, 2 mM glutamine, 10% CAS and 5×10^-5 M 2-mercaptoethanol and were later cloned by limiting dilutior, The clones were maintained in RPMI 1640 medium with 10% PCS and 10% CAS.
NS cells were centrifuged and resuspended at b 1×10^6 /ml in PBS and incubated at 37° C. for 10 min with 10 mM IBMX at a final concentration at 20 μM. Alternatively the cells were resuspended in 5 mM HEPES and 1 mM MgSO4 and after five minutes were disrupted in a Dounce homogenizer. Broken cells were centrifuged at 20,000 g […] for thirty minutes and supernatant was discarded. The pellet was resuspended in Tris (pH 7.5), 5 mM HEPES and 1 mM MgSO4 and incubated with IBMX.
Cold TCA (100%) was added to a final concentration of 8% and the tubes were stored in ice. Samples were extracted 3 times with 3 volumes of ether. The ether was evaporated at 40° C. in a water bath for approximately 45 min. Acetylation of both experimental samples and cAMP standards were performed by addition of 10 μl of a mixture of triethylamine and acetic anhydride (2:1). […] The radio-immunoassay was performed as reported previously by Khan et al., J. Clin. Invest. (1985) 75:1578.

[2] = target: T2, guinea pig myocardial adenylate cyclase (Cavia porcellus, UniProt P47747); test: Guinea pig myocardial adenylate cyclase assay; type: biochemical; conditions: adenylate cyclase
T2 construct: histamine-stimulated adenylate cyclase with GPP(NH)P
Description: Male, partly albino, guinea pigs (600 g average weight) were killed by a blow to the head. The hearts were excised and immediately immersed in ice cold oxygenated Tyrode's solution. Both ventricles were dissected free and placed in 250 mM sucrose, 5 mM Tris, 1 mM EDTA, pH 7.45. The tissue was minced with a screen, and was then homogenized with 3 consecutive 5 sec bursts of a Polytron (Brinkman Instruments, Inc., Westbury, NY) at a setting of 11. The homogenate was then centrifuged at 1085×g for 20 min. The pellet was resuspended and recentrifuged twice. The final suspension was filtered through four layers of gauze. Adenylate cyclase was assayed by the method of Salomon et al., Anal. Biochem. (1974) 58:541 as modified by Bristow et al., Mol Pharmacol. (1982) 21:671. Enzyme protein (75-250 μg) was added to a reaction mixture that consisted of 0.1 mM Mg ATP, 0.5 mM MgCl2, 10 mM phosphocreatine, 14.5 μg of creatine kinase (1381 U/mg), 100 mM
The final reaction volume before addition of α-^32 P!ATP was 225 μl. Reaction tubes were stored in cryogenic racks (Kryorack, Isolab, Inc. Akron, OH) at 0° C.
The reaction mixture was pre-warmed in a shaking water bath at 30° C. for 5 min after which 25 μl ([…]) of α-^32 P!ATP (250-500 Ci/mM) was added to label the ATP pool. The assay time was 20 min, the time needed for measurable stimulation of adenylate cyclase. The ^32 P reaction was stopped by the addition of 750 μl of 1% sodium dodecysulfate. ^32 P-labelled cyclic AMP was then isolated by the dual Dowex-alumina column method of Salomon et al., supra. α-^32 P!ATP (New England Nuclear Corporation, Boston, MA) that gave reagent blanks of 50 cpm was purified on Dowex columns as described by Salomon et al., supra.

natural suppressor cells [3] = target: T1, natural suppressor cells; test: Blocking histamine effects in natural suppressor cells (H2 antagonism); type: cell-based, mouse (BALB/c); conditions: for Antagonism by cimetidine (H2 antagonist) of cAMP accumulation: cimetidine 10^-5 M, compounds 6-8 at 10^-4 M, 9 at 10^-7 M
Description: This assay was carried out in the same fashion as already described for the derivatives except that ED-90 concentration of the test compound was chosen. Cimetidine was added at the same time in concentrations ranging from 10^-4 to 10^-8 M. Alternatively, 10^-6 M cimetidine was added to 10^-3 -10^-8 M concentration of agonists.

natural suppressor cells [4] = test: Mixed leukocyte reaction (MLR) suppressor assay; type: cell-based, mouse (BALB/c, C57 BL/6); conditions: with compound 10; cimetidine 10^-5 M or mepyramine 10^-6 M, four hours at 37° C
Description: Responder (BALB/c) and stimulator (C57 BL/6) spleen cells (5×10^5each) were incubated with graded numbers of NS cells in 0.3 ml/well in 96-well flat bottomed microculture plates (Costar, Data Packaging, Cambridge, MA). The culture medium was supplemented with 100 U/ml penicillin, 100 ug/ml of streptomycin (both GIBCO, Grand Island, NY), and 10=pooled human serum (VSP human serum, Biocell Laboratories, Carson CA). Co-cultured cells and stimulator cells were given 3300 rad before incubation. Cultures were maintained at 37° C. in 5% CO2 for 5 or 6 days. Eighteen hr before termination, 1 μCi of ^3 H!-thymidine (specific activity […]) (New England Nuclear, Boston, MA) was added to each culture. Cells were harvested as described above. The data were expressed as the arithmetic mean of triplicate cultures. Suppression was calculated as follows: percent suppression=1-(CPM with co-cultured cells)/(CPM without co-cultured cells)×100. […] To block the effects of agonists, […] cimetidine was used as an H2 antagonist and 10^-6 M mepyramine was used as an H1 antagonist.
CO-cultured and stimulator cells were given 3300 rad in vitro just prior to incubation. […] See, Khan et al., J. Immunol. (1985) 134:4100. […] To determine the role of H1 and H2 receptors in the modification of NS cell function, the incubation with compound 10 was carried out in the presence of either cimetidine (10^-5 M) or mepyramine (10^-6 M) for four hours at 37° C. The cells were then washed extensively and later added to co-cultures with responder and stimulator cells. […] Similar experiments were carried out with each of the indicated agonists (Table 5).

T1 sequence (P97292 whole entry): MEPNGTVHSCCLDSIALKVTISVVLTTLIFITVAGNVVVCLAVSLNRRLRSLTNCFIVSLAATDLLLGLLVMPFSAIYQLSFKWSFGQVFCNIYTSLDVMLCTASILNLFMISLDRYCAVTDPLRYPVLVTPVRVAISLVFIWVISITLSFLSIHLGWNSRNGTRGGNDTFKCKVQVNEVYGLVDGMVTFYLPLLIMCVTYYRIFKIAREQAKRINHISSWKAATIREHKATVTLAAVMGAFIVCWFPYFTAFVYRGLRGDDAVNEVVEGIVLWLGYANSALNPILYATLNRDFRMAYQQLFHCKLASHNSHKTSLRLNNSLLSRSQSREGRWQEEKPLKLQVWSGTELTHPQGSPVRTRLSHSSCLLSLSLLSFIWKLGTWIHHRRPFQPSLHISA
T2 sequence (P47747 whole entry): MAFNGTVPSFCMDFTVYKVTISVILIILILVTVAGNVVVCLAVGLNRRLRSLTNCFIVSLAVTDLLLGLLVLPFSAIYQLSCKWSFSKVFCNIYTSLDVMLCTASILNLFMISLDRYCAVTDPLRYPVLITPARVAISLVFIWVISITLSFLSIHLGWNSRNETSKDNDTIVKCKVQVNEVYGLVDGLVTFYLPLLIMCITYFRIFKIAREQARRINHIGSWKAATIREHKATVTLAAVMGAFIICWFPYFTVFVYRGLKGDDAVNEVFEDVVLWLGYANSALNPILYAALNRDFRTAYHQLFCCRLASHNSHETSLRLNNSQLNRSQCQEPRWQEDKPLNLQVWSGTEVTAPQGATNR

CCCCCCNCCc1c[nH]cn1 [Compound 1, 1-2'-(4"-Imidazo)ethylamino!hexane, Dihydrochloride]
Potency relative to histamine (in words) (natural suppressor cells [1]; NS cells, Dihydrochloride): about equipotent to histamine; also recorded: equipotent to histamine on the lymphocyte accumulation of cyclic AMP | Relative potency (natural suppressor cells [1]; NS cells): 0.5 × 10^1 | Activity on guinea pig myocardium (in words) ([2]; Dihydrochloride): completely inactive; also recorded: little or no effect on the myocardium | Antagonism by cimetidine (H2 antagonist) of cAMP accumulation (natural suppressor cells [3]): not inhibited by the H2 antagonist

Cc1ccc(NC(=O)CCCC(=O)NCCc2c[nH]cn2)cc1 [Compound 4, 5-2'-(4"-Imidazo)ethylamido!glutaryl p-Toluidine]
Potency relative to histamine (in words) (natural suppressor cells [1]; NS cells): four times more potent than histamine; also recorded: equipotent to histamine on the lymphocyte accumulation of cyclic AMP | Relative potency (natural suppressor cells [1]; NS cells): 0.4 × 10^1 | Activity / potency on NS cells (in words) (natural suppressor cells [1]): very active on NS cells | Activity on guinea pig myocardium (in words) [2]: inactive on the guinea pig myocardium; also recorded: little or no effect on the myocardium | Antagonism by cimetidine (H2 antagonist) of cAMP accumulation (natural suppressor cells [3]): not inhibited by the H2 antagonist

Cc1ccc(NC(=O)CCCCNCCc2c[nH]cn2)cc1 [Compound 5, 5-2'-(4"-Imidazo)ethylamino!pentanoic Acid p-Toluide, Dihydrochloride]
Relative potency (natural suppressor cells [1]; NS cells): 0.2 × 10^1 | Activity on guinea pig myocardium (in words) ([2]; Dihydrochloride): significantly different in their activity

Cc1ccc(NC(=O)CCCC(C)NCCc2c[nH]cn2)cc1 (stereo not shown) [Compound 6]
Potency or activity relative to histamine (natural suppressor cells [1]; NS cells): 3000 fold | Potency relative to histamine (in words) (natural suppressor cells [1]; NS cells): three orders of magnitude more potent than histamine | Relative potency (natural suppressor cells [1]; NS cells): 3.8 × 10^3 | Activity / potency on NS cells (in words) (natural suppressor cells [1]): very potent in NS cell cAMP assays | Activity / potency on NS cells (in words) (natural suppressor cells [1]; listed as compound 6): widely divergent activity; also recorded: retained H2 activity | Activity on guinea pig myocardium (in words) [2]: strikingly impotent in guinea pig myocardium; also recorded: less potent than histamine on the myocardium; also recorded: very weak effects; also recorded: significantly different in their activity | Activity on guinea pig myocardium (in words) ([2]; listed as compound 6): same rank order of potency found in the NS cells | Antagonism by cimetidine (H2 antagonist) of cAMP accumulation (natural suppressor cells [3]): could not be completely inhibited by the H2 antagonist

Cc1ccc(NC(=O)CCCCC(C)NCCc2c[nH]cn2)cc1 (stereo not shown) [Compound 7, 6-2'-(4"-Imidazolyl)ethylamino!heptanoic Acid p-Toluide]
Potency relative to histamine (in words) (natural suppressor cells [1]; NS cells): three times as potent as histamine | Relative potency (natural suppressor cells [1]; NS cells): 0.3 × 10^1 | Activity / potency on NS cells (in words) (natural suppressor cells [1]): widely divergent activity | Activity on guinea pig myocardium (in words) [2]: same rank order of potency found in the NS cells

Cc1ccc(NC(=O)CCCCCC(C)NCCc2c[nH]cn2)cc1 (stereo not shown) [Compound 8]
Relative potency (natural suppressor cells [1]; NS cells): 0.2 × 10^1 | Activity / potency on NS cells (in words) (natural suppressor cells [1]): widely divergent activity | Activity on guinea pig myocardium (in words) [2]: very weak effects | Activity on guinea pig myocardium (in words) ([2]; listed as compound 8): same rank order of potency found in the NS cells

CC(CCCCC(=O)Nc1ccc(C(F)(F)F)cc1)NCCc1c[nH]cn1 (stereo not shown) [Compound 9]
Potency or activity relative to histamine (natural suppressor cells [1]; NS cells): 40,000 fold | Potency relative to histamine (natural suppressor cells [1]; NS cells): 4 orders of magnitude | Maximal efficacy on cAMP concentrations (in words) (natural suppressor cells [1]; NS cells): lost a significant amount of maximal efficacy | Relative potency (natural suppressor cells [1]; NS cells): 4.3 × 10^4 | Activity / potency on NS cells (in words) (natural suppressor cells [1]): very potent in NS cell cAMP assays | Activity / potency on NS cells (in words) (natural suppressor cells [1]; listed as compound 9): most potent of this series on H2 receptors; also recorded: retained H2 activity | Activity on guinea pig myocardium (in words) [2]: strikingly impotent in guinea pig myocardium | Activity on guinea pig myocardium (in words) ([2]; listed as compound 9): did not stimulate adenylate cyclase in guinea pig myocardium | Antagonism by cimetidine (H2 antagonist) of cAMP accumulation (natural suppressor cells [3]): could not be completely inhibited by the H2 antagonist

CNC(=O)CNC(=O)[C@H](Cc1ccc(NC(=O)CCCCC(C)NCCc2c[nH]cn2)cc1)NC(=O)OC(C)(C)C (stereo partly shown) [Compound 12]
Relative potency (natural suppressor cells [1]; NS cells): Inactive | Activity / potency on NS cells (in words) (natural suppressor cells [1]): impotent as H2 receptor agonists on NS cells | Activity / potency on NS cells (in words) (natural suppressor cells [1]; listed as compound 12): Neither an aliphatic amide derivative of histamine (compound 3) nor the dipeptide conjugate of histamine (compound 12) altered intracellular cAMP; also recorded: inactive on NS cells | Activity on guinea pig myocardium (in words) [2]: stimulated guinea pig myocardium | Blockade of histamine mediated accumulation of cAMP (natural suppressor cells [3]; NS cells): failed to block histamine mediated accumulation of cAMP

CN(C)CCCSC(=N)N [Dimaprit, reference compound]
EC50 (natural suppressor cells [1]; NS cells): 60 µM | Maximal efficacy on cAMP concentrations (in words) (natural suppressor cells [1]; NS cells): did not produce the same maximal effects as histamine on cAMP concentrations | Activity / potency on NS cells (in words) (natural suppressor cells [1]): had H2 effects on the NS cells | Shift of dose response curve by cimetidine (natural suppressor cells [3]; 10^-3 M to 10^-8 M agonist, 10^-6 M cimetidine): parallel shifts to the right

COc1ccc(CN(CCN(C)C)c2ccccn2)cc1 [Mepyramine, reference compound]
Effect of antagonist on derivative-enhanced suppression in MLR (natural suppressor cells [4]): reversed the increase in suppressive activity of the derivative-stimulated NS cells
